How the values were obtained:
[1] = test system: HT-29; test: cells; type: functional, cell-based; details: Homo sapiens;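 also: growth inhibition of human HT-29 cells, read out by a cell viability assay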
Description: SANGER: Inhibition of human HT-29 cell growth in a cell viability assay.

[2] = test system: COLO-680N; test: cells; type: functional, cell-based; details: Homo sapiens;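 also: cell viability assay used to measure inhibition of COLO-680N cell growth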
Description: SANGER: Inhibition of human COLO-680N cell growth in a cell viability assay.

[3] = test system: CA46; test: cells; type: functional, cell-based, Homo sapiens; details: Homo sapiens, CA46;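 also: growth inhibition of human CA46 cells, read out by a cell viability assay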
Description: SANGER: Inhibition of human CA46 cell growth in a cell viability assay.

[4] = test system: NCI-H460; test: cells; type: functional, cell-based; details: Homo sapiens;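 also: cell viability assay scoring growth inhibition of human NCI-H460 cells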
Description: SANGER: Inhibition of human NCI-H460 cell growth in a cell viability assay.

[5] = test system: IGR-1; test: cells; type: functional, cell-based; details: Homo sapiens;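 also: growth inhibition of human IGR-1 cells, read out with a cell viability assay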
Description: SANGER: Inhibition of human IGR-1 cell growth in a cell viability assay.

[6] = test system: NCI-H64; test: cells; type: functional, cell-based, Homo sapiens; details: Homo sapiens, NCI-H64;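 also: growth inhibition of NCI-H64 cells, read out with a cell viability assay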
Description: SANGER: Inhibition of human NCI-H64 cell growth in a cell viability assay.

[7] = test system: EB-3; test: cells; type: functional, cell-based, Homo sapiens; details: Homo sapiens, EB-3;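 also: human EB-3 cells, growth inhibition read out via a cell viability assay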
Description: SANGER: Inhibition of human EB-3 cell growth in a cell viability assay.

[8] = test system: NCI-H522; test: cells; type: functional, cell-based; details: Homo sapiens;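 also: cell viability assay measuring growth inhibition of human NCI-H522 cells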
Description: SANGER: Inhibition of human NCI-H522 cell growth in a cell viability assay.

[9] = test system: SK-MEL3; test: cells; type: functional, cell-based, SK-MEL-3; details: Homo sapiens;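 also: growth inhibition of human SK-MEL-3 cells, read out with a cell viability assay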
Description: SANGER: Inhibition of human SK-MEL-3 cell growth in a cell viability assay.

[10] = test system: NCI-H719; test: cells; type: functional, cell-based, Homo sapiens; details: Homo sapiens, NCI-H719;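 also: growth inhibition of the cultured cell line, read out with a viability assay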
Description: SANGER: Inhibition of human NCI-H719 cell growth in a cell viability assay.

[11] = test system: WSU-NHL; test: cells; type: functional, cell-based, Homo sapiens; details: Homo sapiens, WSU-NHL;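 also: growth inhibition of human WSU-NHL cells, read out with a cell viability assay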
Description: SANGER: Inhibition of human WSU-NHL cell growth in a cell viability assay.

[12] = test system: KYSE-150 cell line; test: cells; type: functional, cell-based; details: Homo sapiens;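 also: growth inhibition of human KYSE-150 cells, read out with a cell viability assay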
Description: SANGER: Inhibition of human KYSE-150 cell growth in a cell viability assay.

[13] = test system: SK-MM-2; test: cells; type: functional, cell-based, Homo sapiens; details: Homo sapiens, SK-MM-2;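 also: growth inhibition of human SK-MM-2 cells, read out with a cell viability assay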
Description: SANGER: Inhibition of human SK-MM-2 cell growth in a cell viability assay.

[14] = test system: NCI-H2171; test: cells; type: functional, cell-based, Homo sapiens; details: Homo sapiens, NCI-H2171;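 also: growth inhibition of human NCI-H2171 cells, read out by a cell viability assay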
Description: SANGER: Inhibition of human NCI-H2171 cell growth in a cell viability assay.

[15] = test system: Ca9-22; test: cells; type: functional, cell-based; details: Homo sapiens;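 also: growth inhibition of Ca9-22 cells, read out with a cell viability assay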
Description: SANGER: Inhibition of human Ca9-22 cell growth in a cell viability assay.

[16] = test system: HSC-2; test: cells; type: functional, cell-based; details: Homo sapiens;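 also: growth inhibition of human HSC-2 cells, read out by a cell viability assay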
Description: SANGER: Inhibition of human HSC-2 cell growth in a cell viability assay.

[17] = test system: NCI-H1651; test: cells; type: functional, cell-based; details: Homo sapiens;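 also: Read-out is a cell viability assay, with IC50 expressing inhibition of NCI-H1651 cell growth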
Description: SANGER: Inhibition of human NCI-H1651 cell growth in a cell viability assay.

[18] = test system: NCI-H520; test: cells; type: functional, cell-based; details: Homo sapiens;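 also: growth inhibition of NCI-H520 cells, measured by a cell viability assay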
Description: SANGER: Inhibition of human NCI-H520 cell growth in a cell viability assay.

[19] = test system: HSC-3; test: cells; type: functional, cell-based; details: Homo sapiens
Description: SANGER: Inhibition of human HSC-3 cell growth in a cell viability assay.

[20] = test system: NCI-H1693; test: cells; type: functional, cell-based; details: Homo sapiens;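 also: growth inhibition of the human cell line, read out with a cell viability assay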
Description: SANGER: Inhibition of human NCI-H1693 cell growth in a cell viability assay.

[21] = test system: SW1990; test: cells; type: functional, cell-based; details: Homo sapiens
Description: SANGER: Inhibition of human SW1990 cell growth in a cell viability assay.

[22] = test system: HMV-2 cell line; test: cells; type: functional, cell-based; details: Homo sapiens;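 also: growth inhibition of HMV-II cells, read out with a cell viability assay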
Description: SANGER: Inhibition of human HMV-II cell growth in a cell viability assay.

[23] = test system: MFH-ino; test: cells; type: functional, cell-based, Homo sapiens; details: Homo sapiens, MFH-ino;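 also: growth inhibition of human MFH-ino cells, read out by a cell viability assay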
Description: SANGER: Inhibition of human MFH-ino cell growth in a cell viability assay.

[24] = test system: U-118-MG; test: cells; type: functional, cell-based; details: Homo sapiens
Description: SANGER: Inhibition of human U-118-MG cell growth in a cell viability assay.

[25] = test system: COLO-678; test: cells; type: functional, cell-based; details: Homo sapiens
Description: SANGER: Inhibition of human COLO-678 cell growth in a cell viability assay.

[26] = test system: DOK; test: cells; type: functional, cell-based; details: Homo sapiens;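 also: cell viability assay read-out, values reflect inhibition of cell growth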
Description: SANGER: Inhibition of human DOK cell growth in a cell viability assay.

[27] = test system: WM-115; test: cells; type: functional, cell-based; details: Homo sapiens
Description: SANGER: Inhibition of human WM-115 cell growth in a cell viability assay.

[28] = test system: L-540; test: cells; type: functional, cell-based, Homo sapiens; details: Homo sapiens, L-540;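 also: growth inhibition of the human L-540 cell line, read out with a viability assay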
Description: SANGER: Inhibition of human L-540 cell growth in a cell viability assay.

[29] = test system: AN3-CA; test: cells; type: functional, cell-based; details: Homo sapiens;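 also: growth inhibition of human AN3-CA cells measured by a cell viability assay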
Description: SANGER: Inhibition of human AN3-CA cell growth in a cell viability assay.

[30] = test system: RCM-1; test: cells; type: functional, cell-based; details: Homo sapiens;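 also: growth inhibition of the RCM-1 line, determined with a cell viability readout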
Description: SANGER: Inhibition of human RCM-1 cell growth in a cell viability assay.

[31] = test system: OPM-2; test: cells; type: functional, cell-based, Homo sapiens; details: Homo sapiens, OPM-2;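 also: growth of OPM-2 cells measured with a viability assay, IC50 for suppression of proliferation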
Description: SANGER: Inhibition of human OPM-2 cell growth in a cell viability assay.

[32] = test system: NCCIT; test: SANGER: Inhibition of human NCCIT cell growth in a cell viability assay.; type: functional, cell-based; details: Homo sapiens, NCCIT
[33] = test system: JIYOYE; test: cells; type: functional, cell-based, Homo sapiens; details: Homo sapiens, JIYOYE
Description: SANGER: Inhibition of human JiyoyeP-2003 cell growth in a cell viability assay.

[34] = test system: 8505C; test: cells; type: functional, cell-based; details: Homo sapiens
Description: SANGER: Inhibition of human 8505C cell growth in a cell viability assay.

[35] = test system: JEG-3; test: cells; type: functional, cell-based; details: Homo sapiens;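 also: growth inhibition of human JEG-3 cells, read out with a cell viability assay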
Description: SANGER: Inhibition of human JEG-3 cell growth in a cell viability assay.

[36] = test system: MKN-1; test: cells; type: functional, cell-based; details: Homo sapiens;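 also: growth inhibition of human MKN1 cells, read out by a cell viability measurement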
Description: SANGER: Inhibition of human MKN1 cell growth in a cell viability assay.

[37] = test system: A-427; test: cells; type: functional, cell-based; details: Homo sapiens;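 also: growth inhibition of human A-427 cells, read out by a cell viability assay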
Description: SANGER: Inhibition of human A427 cell growth in a cell viability assay.

[38] = test system: SW1710; test: cells; type: functional, cell-based; details: Homo sapiens;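 also: growth inhibition of SW1710 cells, determined with a cell viability assay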
Description: SANGER: Inhibition of human SW1710 cell growth in a cell viability assay.

[39] = test system: CHP-126; test: cells; type: functional, cell-based, Homo sapiens; details: Homo sapiens, CHP-126
Description: SANGER: Inhibition of human CHP-126 cell growth in a cell viability assay.

[40] = test system: G-401; test: cells; type: functional, cell-based; details: Homo sapiens
Description: SANGER: Inhibition of human G-401 cell growth in a cell viability assay.

[41] = test system: MeWo; test: cells; type: functional, cell-based; details: Homo sapiens;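 also: growth inhibition of MeWo cells, determined by a cell viability readout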
Description: SANGER: Inhibition of human Mewo cell growth in a cell viability assay.

[42] = test system: SK-N-AS; test: cells; type: functional, cell-based; details: Homo sapiens;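 also: growth inhibition of human SK-N-AS cells, measured with a cell viability assay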
Description: SANGER: Inhibition of human SK-N-AS cell growth in a cell viability assay.

[43] = test system: NCI-H2087; test: cells; type: functional, cell-based; details: Homo sapiens;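 also: growth inhibition determined with a cell viability readout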
Description: SANGER: Inhibition of human NCI-H2087 cell growth in a cell viability assay.

[44] = test system: COLO-792; test: cells; type: functional, cell-based; details: Homo sapiens
Description: SANGER: Inhibition of human COLO-792 cell growth in a cell viability assay.

[45] = test system: COLO-679; test: cells; type: functional, cell-based; details: Homo sapiens
Description: SANGER: Inhibition of human COLO-679 cell growth in a cell viability assay.

[46] = test system: AGS; test: cells; type: functional, cell-based; details: Homo sapiens;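 also: growth inhibition of AGS cells, determined with a cell viability assay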
Description: SANGER: Inhibition of human AGS cell growth in a cell viability assay.

[47] = test system: NCI-H1703; test: cells; type: functional, cell-based; details: Homo sapiens;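 also: growth inhibition of NCI-H1703 cells, read out via a cell viability assay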
Description: SANGER: Inhibition of human NCI-H1703 cell growth in a cell viability assay.

[48] = test system: REH; test: cells; type: functional, cell-based, Homo sapiens; details: Homo sapiens, REH;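 also: growth inhibition of REH cells determined with a cell viability read-out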
Description: SANGER: Inhibition of human REH cell growth in a cell viability assay.

[49] = test system: SW-620; test: cells; type: functional, cell-based; details: Homo sapiens;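 also: growth inhibition of human SW-620 cells, measured by a cell viability assay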
Description: SANGER: Inhibition of human SW620 cell growth in a cell viability assay.

[50] = test system: NCI-H661; test: cells; type: functional, cell-based; details: Homo sapiens;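 also: cell viability assay read-out, IC50 being the concentration that inhibits growth of the cells by half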
Description: SANGER: Inhibition of human NCI-H661 cell growth in a cell viability assay.

[51] = test system: 647-V; test: cells; type: functional, cell-based; details: Homo sapiens;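 also: growth inhibition of 647-V cells, read out with a cell viability assay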
Description: SANGER: Inhibition of human 647-V cell growth in a cell viability assay.

[52] = test system: NY; test: cells; type: functional, cell-based; details: Homo sapiens
Description: SANGER: Inhibition of human NY cell growth in a cell viability assay.

[53] = test system: SW1417; test: cells; type: functional, cell-based; details: Homo sapiens;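 also: growth inhibition of human SW1417 cells, read out with a cell viability assay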
Description: SANGER: Inhibition of human SW1417 cell growth in a cell viability assay.

[54] = test system: HCC1395; test: cells; type: functional, cell-based; details: Homo sapiens;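 also: growth inhibition of HCC1395 cells, read out by a cell viability assay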
Description: SANGER: Inhibition of human HCC1395 cell growth in a cell viability assay.

[55] = test system: HCC1937; test: cells; type: functional, cell-based; details: Homo sapiens;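 also: growth inhibition measured with a cell viability read-out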
Description: SANGER: Inhibition of human HCC1937 cell growth in a cell viability assay.

[56] = test system: MDA-MB-453; test: cells; type: functional, cell-based; details: Homo sapiens
Description: SANGER: Inhibition of human MDA-MB-453 cell growth in a cell viability assay.

[57] = test system: NCI-H1993; test: cells; type: functional, cell-based; details: Homo sapiens;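 also: growth inhibition of the cancer cell line, assessed with a cell viability assay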
Description: SANGER: Inhibition of human NCI-H1993 cell growth in a cell viability assay.

[58] = test system: DoTc2-4510; test: cells; type: functional, cell-based; details: Homo sapiens
[59] = test system: T98G; test: cells; type: functional, cell-based; details: Homo sapiens;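 also: growth inhibition of T98G cells, read out by a cell viability assay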
Description: SANGER: Inhibition of human T98G cell growth in a cell viability assay.

[60] = test system: NCI-H1963; test: cells; type: functional, cell-based, Homo sapiens; details: Homo sapiens, NCI-H1963;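 also: cell growth inhibition of the human line, determined with a cell viability assay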
Description: SANGER: Inhibition of human NCI-H1963 cell growth in a cell viability assay.

Measured: IC50

COC(=O)[C@H](CCSC)NC(=O)c1ccc(NC[C@@H](N)CS)cc1-c1ccccc1
> 1020 nM: all assays above

Source: ChEMBL document CHEMBL1201861, “Genomics of Drug Sensitity in Cancer screening data, Wellcome Trust Sanger Institute”
